Data on 16 molecules can be found in patent publication US11912663B2, “Multi-targeted tyrosine kinase inhibitors and their pharmaceutical uses” (Shanghai AB PharmaTech Ltd., priority 2021, dated 2024).

The IC50 is the concentration that gives 50% inhibition.

For the first assay, the system named is pancreatic cancer cell line (BXPC3). Kind of assay: tumor cell proliferation inhibition (CTG), pancreatic cancer cell line. Type of assay: cell-based. The following applies: Homo sapiens, BXPC-3, 72 hours.
With `COc1cc2nccc(Oc3c(F)cc(NC(=O)NC4CC4)c(F)c3F)c2cc1C(=O)NCCO` [IIIb-15], the IC50 was over 10 µM.

Consider `COc1cc2nccc(Oc3c(F)cc(NC(=O)NC4CC4)c(Cl)c3F)c2cc1C(=O)Nc1cncn1C` [IIIb-54], for which the IC50 is over 10 µM.

`COc1cc2nccc(Oc3c(F)cc(NC(=O)NC4CC4)c(Cl)c3F)c2cc1C(=O)NCCN` [IIIb-51] registered a concentration for half-maximal inhibition (IC50) of over 10 µM.

As for `COc1cc2nccc(Oc3c(F)cc(NC(=O)NC4CC4)c(Cl)c3F)c2cc1C(=O)NC(CO)CO` [IIIb-20], the IC50 was over 10 µM.

Molecule `COc1cc2nccc(Oc3c(F)cc(NC(=O)NC4CC4)c(Cl)c3F)c2cc1C(=O)N[C@@H](C)CO` [IIIb-18] displayed an IC50 of over 10 µM.

With `COc1cc2nccc(Oc3c(F)cc(NC(=O)NC4CC4)c(Cl)c3F)c2cc1C(=O)NC(C)C#N` (stereo not drawn) [IIIb-46], the IC50 was over 10 µM.

`COc1cc2nccc(Oc3c(F)cc(NC(=O)NC4CC4)c(Cl)c3F)c2cc1C(=O)NC1CC1` [IIIb-12] had an IC50 of over 10 µM.

For the molecule `COc1cc2nccc(Oc3c(F)cc(NC(=O)NC4CC4)c(Cl)c3F)c2cc1C#N` [IIIb-29], the IC50 was over 10 µM.

In the case of `CNC(=O)c1cc2c(Oc3c(F)cc(NC(=O)NC4CC4)c(F)c3F)ccnc2cc1OC` [IIIb-02], the IC50 is over 10 µM.

In turn, `CN(C)CCOc1cc2nccc(Oc3c(F)cc(NC(=O)NC4CC4)c(Cl)c3F)c2cc1C(N)=O` [IIIb-59] registered an IC50 of over 10 µM.

In turn, `COc1cc2nccc(Oc3c(F)cc(NC(=O)NC4CC4)c(Cl)c3F)c2cc1C(=O)NC[C@H](O)CO` [IIIb-22] gave an IC50 of over 10 µM.

In turn, `COc1cc2nccc(Oc3c(F)cc(NC(=O)NC4CC4)c(Cl)c3F)c2cc1C(=O)N1CC(O)C1` [IIIb-24] came in with an IC50 of over 10 µM.

Consider `COc1cc2nccc(Oc3c(F)cc(NC(=O)NC4CC4)c(Cl)c3F)c2cc1C(=O)NCC1(C#N)CC1` [IIIb-49], for which the IC50 was over 10 µM.

For the molecule `COc1cc2nccc(Oc3c(F)cc(NC(=O)NC4CC4)c(Cl)c3F)c2cc1C(=O)NC(C)(C)C#N` [IIIb-47], the IC50 was over 10 µM.

The molecule `COc1cc2nccc(Oc3c(F)cc(NC(=O)NC4CC4)c(Cl)c3F)c2cc1C(=O)NC(CO)C(F)(F)F` (stereo not drawn) [IIIb-42] came in with an IC50 of over 10 µM.

Take `COc1cc2nccc(Oc3c(F)cc(NC(=O)NC4CC4)c(F)c3F)c2cc1C(=O)NCC(F)F` [IIIb-07]: the IC50 was over 10 µM.

The test system of the next assay is lung cancer cell line (A549). The experiment in a line: tumor cell proliferation inhibition (CTG), lung cancer cell line. It is filed as cell-based. The settings on record: Homo sapiens, 72 hours.
Regarding `COc1cc2nccc(Oc3c(F)cc(NC(=O)NC4CC4)c(F)c3F)c2cc1C(=O)NCCO` [IIIb-15], the IC50 is over 5 µM.

`COc1cc2nccc(Oc3c(F)cc(NC(=O)NC4CC4)c(Cl)c3F)c2cc1C(=O)Nc1cncn1C` [IIIb-54] yielded an IC50 of over 5 µM.

In turn, `COc1cc2nccc(Oc3c(F)cc(NC(=O)NC4CC4)c(Cl)c3F)c2cc1C(=O)NCCN` [IIIb-51] displayed an IC50 of over 5 µM.

The molecule `COc1cc2nccc(Oc3c(F)cc(NC(=O)NC4CC4)c(Cl)c3F)c2cc1C(=O)NC(CO)CO` [IIIb-20] had an IC50 of over 5 µM.

`COc1cc2nccc(Oc3c(F)cc(NC(=O)NC4CC4)c(Cl)c3F)c2cc1C(=O)N[C@@H](C)CO` [IIIb-18] yielded an IC50 of over 5 µM.

In turn, `COc1cc2nccc(Oc3c(F)cc(NC(=O)NC4CC4)c(Cl)c3F)c2cc1C(=O)NC(C)C#N` (stereo not drawn) [IIIb-46] yielded an IC50 of over 5 µM.

For `COc1cc2nccc(Oc3c(F)cc(NC(=O)NC4CC4)c(Cl)c3F)c2cc1C(=O)NC1CC1` [IIIb-12], the IC50 is over 5 µM.

`COc1cc2nccc(Oc3c(F)cc(NC(=O)NC4CC4)c(Cl)c3F)c2cc1C#N` [IIIb-29] yielded an IC50 of over 5 µM.

As to `CNC(=O)c1cc2c(Oc3c(F)cc(NC(=O)NC4CC4)c(F)c3F)ccnc2cc1OC` [IIIb-02], the IC50 was over 5 µM.

`CN(C)CCOc1cc2nccc(Oc3c(F)cc(NC(=O)NC4CC4)c(Cl)c3F)c2cc1C(N)=O` [IIIb-59] came in with an IC50 of over 5 µM.

In turn, `COc1cc2nccc(Oc3c(F)cc(NC(=O)NC4CC4)c(Cl)c3F)c2cc1C(=O)NC[C@H](O)CO` [IIIb-22] returned an IC50 of 2.5 to 5 µM.

In turn, `COc1cc2nccc(Oc3c(F)cc(NC(=O)NC4CC4)c(Cl)c3F)c2cc1C(=O)N1CC(O)C1` [IIIb-24] came in with an IC50 of over 5 µM.

With `COc1cc2nccc(Oc3c(F)cc(NC(=O)NC4CC4)c(Cl)c3F)c2cc1C(=O)NCC1(C#N)CC1` [IIIb-49], the half-inhibitory concentration (IC50) was over 5 µM.

The molecule `COc1cc2nccc(Oc3c(F)cc(NC(=O)NC4CC4)c(Cl)c3F)c2cc1C(=O)NC(C)(C)C#N` [IIIb-47] gave an IC50 of over 5 µM.

In the case of `COc1cc2nccc(Oc3c(F)cc(NC(=O)NC4CC4)c(Cl)c3F)c2cc1C(=O)NC(CO)C(F)(F)F` (stereo not drawn) [IIIb-42], the IC50 is over 5 µM.

`COc1cc2nccc(Oc3c(F)cc(NC(=O)NC4CC4)c(F)c3F)c2cc1C(=O)NCC(F)F` [IIIb-07] came in with an IC50 of over 5 µM.

Another assay has as its system kidney cancer cell line (Caki-1). The experiment in a line: tumor cell proliferation inhibition (CTG), kidney cancer cell line. It is filed as cell-based. The settings on record: Homo sapiens, 72 hours, read-out: Caki-1 (renal cancer) IC50.
Take `COc1cc2nccc(Oc3c(F)cc(NC(=O)NC4CC4)c(F)c3F)c2cc1C(=O)NCCO` [IIIb-15]: the IC50 is over 5 µM.

As for `COc1cc2nccc(Oc3c(F)cc(NC(=O)NC4CC4)c(Cl)c3F)c2cc1C(=O)Nc1cncn1C` [IIIb-54], the IC50 is over 5 µM.

Regarding `COc1cc2nccc(Oc3c(F)cc(NC(=O)NC4CC4)c(Cl)c3F)c2cc1C(=O)NCCN` [IIIb-51], the IC50 was over 5 µM.

With `COc1cc2nccc(Oc3c(F)cc(NC(=O)NC4CC4)c(Cl)c3F)c2cc1C(=O)NC(CO)CO` [IIIb-20], the IC50 was over 5 µM.

In the case of `COc1cc2nccc(Oc3c(F)cc(NC(=O)NC4CC4)c(Cl)c3F)c2cc1C(=O)N[C@@H](C)CO` [IIIb-18], the IC50 was over 5 µM.

Take `COc1cc2nccc(Oc3c(F)cc(NC(=O)NC4CC4)c(Cl)c3F)c2cc1C(=O)NC(C)C#N` (stereo not drawn) [IIIb-46]: the IC50 was over 5 µM.

Turning to `COc1cc2nccc(Oc3c(F)cc(NC(=O)NC4CC4)c(Cl)c3F)c2cc1C(=O)NC1CC1` [IIIb-12], the IC50 was over 5 µM.

Turning to `COc1cc2nccc(Oc3c(F)cc(NC(=O)NC4CC4)c(Cl)c3F)c2cc1C#N` [IIIb-29], the IC50 is over 5 µM.

For the molecule `CNC(=O)c1cc2c(Oc3c(F)cc(NC(=O)NC4CC4)c(F)c3F)ccnc2cc1OC` [IIIb-02], the IC50 is over 5 µM.

`CN(C)CCOc1cc2nccc(Oc3c(F)cc(NC(=O)NC4CC4)c(Cl)c3F)c2cc1C(N)=O` [IIIb-59]: the IC50 is over 5 µM.

For `COc1cc2nccc(Oc3c(F)cc(NC(=O)NC4CC4)c(Cl)c3F)c2cc1C(=O)NC[C@H](O)CO` [IIIb-22], the IC50 is 2.5 to 5 µM.

Regarding `COc1cc2nccc(Oc3c(F)cc(NC(=O)NC4CC4)c(Cl)c3F)c2cc1C(=O)N1CC(O)C1` [IIIb-24], the IC50 is over 5 µM.

Regarding `COc1cc2nccc(Oc3c(F)cc(NC(=O)NC4CC4)c(Cl)c3F)c2cc1C(=O)NCC1(C#N)CC1` [IIIb-49], the IC50 was over 5 µM.

`COc1cc2nccc(Oc3c(F)cc(NC(=O)NC4CC4)c(Cl)c3F)c2cc1C(=O)NC(C)(C)C#N` [IIIb-47]: the IC50 was over 5 µM.

With `COc1cc2nccc(Oc3c(F)cc(NC(=O)NC4CC4)c(Cl)c3F)c2cc1C(=O)NC(CO)C(F)(F)F` (stereo not drawn) [IIIb-42], the IC50 was over 5 µM.

With `COc1cc2nccc(Oc3c(F)cc(NC(=O)NC4CC4)c(F)c3F)c2cc1C(=O)NCC(F)F` [IIIb-07], the IC50 was over 5 µM.
